According to ChEMBL document CHEMBL3232849, “Structure-activity relationship studies toward the discovery of selective apelin receptor agonists” (J Med Chem, 2014):
Active and inactive are the calls of the source. The calls are words filed in the database; no cut-off is given here.

How the values were obtained:
[1] = target: T1, Type-1 angiotensin II receptor (Homo sapiens, UniProt P30556); experiment: Displacement of [125I]-angiotensin 2 from human angiotensin 2 type-1 receptor expressed in CHO cell membranes after 1 hr by gamma counting analysis
T1 sequence (P30556 whole entry): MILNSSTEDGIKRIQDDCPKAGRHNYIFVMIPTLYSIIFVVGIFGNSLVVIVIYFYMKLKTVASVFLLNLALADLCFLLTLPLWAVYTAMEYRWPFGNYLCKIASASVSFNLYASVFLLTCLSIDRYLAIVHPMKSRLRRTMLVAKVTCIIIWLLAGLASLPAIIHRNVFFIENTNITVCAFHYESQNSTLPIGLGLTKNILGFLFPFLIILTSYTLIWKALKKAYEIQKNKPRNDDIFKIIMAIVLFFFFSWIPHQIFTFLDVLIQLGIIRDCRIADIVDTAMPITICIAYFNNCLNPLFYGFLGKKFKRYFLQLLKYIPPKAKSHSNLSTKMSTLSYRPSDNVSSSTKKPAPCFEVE

[2] = Half life in mouse plasma at 5 uM at 37 degC by LC-MS analysis; format: ADME, cell-free
[3] = target: T2, Apelin receptor (Rattus norvegicus) (UniProt Q9JHG3); experiment: (§1) Agonist activity at rat apelin receptor expressed in CHO cell membranes coexpressing EGFP assessed as inhibition of forskolin-induced cAMP production after 30 mins by fluorescence analysis; format: functional, cell-based
T2 sequence (whole entry): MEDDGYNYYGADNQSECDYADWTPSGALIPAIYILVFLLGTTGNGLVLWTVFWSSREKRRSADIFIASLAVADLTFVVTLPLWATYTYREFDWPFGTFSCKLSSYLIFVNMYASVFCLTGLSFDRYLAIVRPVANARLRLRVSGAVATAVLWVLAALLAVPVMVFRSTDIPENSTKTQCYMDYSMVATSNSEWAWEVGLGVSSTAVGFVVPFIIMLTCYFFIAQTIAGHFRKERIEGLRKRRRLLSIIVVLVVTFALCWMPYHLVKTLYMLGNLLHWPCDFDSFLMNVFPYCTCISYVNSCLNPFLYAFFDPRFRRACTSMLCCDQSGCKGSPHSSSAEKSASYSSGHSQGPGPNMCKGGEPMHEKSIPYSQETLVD

[4] = target: T3, Apelin receptor (Rattus norvegicus, UniProt Q9JHG3); experiment: as §1; format: functional, cell-based
T3 sequence (Q9JHG3 whole entry): T2 sequence (whole entry)

[5] = target: T2, Apelin receptor (Rattus norvegicus); experiment: Agonist activity at rat apelin receptor expressed in CHO cell membranes coexpressing EGFP assessed as receptor internalization at 100 nM after 20 mins by confocal microscopic analysis; format: cell-based
[6] = target: T2, Apelin receptor (Rattus norvegicus); experiment: Agonist activity at rat apelin receptor expressed in CHO cell membranes coexpressing EGFP assessed as inhibition of forskolin-induced cAMP production after 30 mins by fluorescence analysis relative to control; format: functional, cell-based
[7] = target: T4, Apelin receptor (Homo sapiens, UniProt P35414); experiment: Displacement of [125I]-pE13F from human apelin receptor expressed in CHO cell membranes after 1 hr by gamma counting analysis
T4 sequence (P35414 whole entry): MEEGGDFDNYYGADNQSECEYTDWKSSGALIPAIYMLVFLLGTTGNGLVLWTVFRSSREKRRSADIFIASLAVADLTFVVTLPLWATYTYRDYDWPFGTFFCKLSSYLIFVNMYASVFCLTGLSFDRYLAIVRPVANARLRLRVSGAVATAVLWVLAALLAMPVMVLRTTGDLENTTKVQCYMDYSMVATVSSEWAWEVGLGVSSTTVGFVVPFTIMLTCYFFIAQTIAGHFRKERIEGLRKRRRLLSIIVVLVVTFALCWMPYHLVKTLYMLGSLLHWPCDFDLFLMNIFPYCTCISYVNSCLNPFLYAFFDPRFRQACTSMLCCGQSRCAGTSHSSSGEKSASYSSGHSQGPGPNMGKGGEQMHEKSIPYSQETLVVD

[8] = Dissociation constant, pKa of the compound in water at 2 mM by potentiometric titration analysis; format: physicochemical
[9] = target: T2, Apelin receptor (Rattus norvegicus); experiment: Agonist activity at rat apelin receptor expressed in CHO cell membranes coexpressing EGFP assessed as receptor internalization at 100 uM after 20 mins by confocal microscopic analysis; format: cell-based

Ki [7] | Activity [9] | Compound | other results
 |  | CSCC[C@H](NC(=O)[C@@H]1CCCN1C(=O)CNC(=O)[C@H](CCCCN)NC(=O)[C@H](Cc1cnc[nH]1)NC(=O)[C@H](CO)NC(=O)[C@H](CC(C)C)NC(=O)[C@H](CCCNC(=N)N)NC(=O)[C@@H]1CCCN1C(=O)[C@H](CCCNC(=N)N)NC(=O)[C@H](CCC(N)=O)NC(=O)[C@H](CCCNC(=N)N)NC(=O)[C@H](CCCNC(=N)N)NC(=O)[C@H](Cc1ccccc1)NC(=O)[C@@H](N)CCCCN)C(=O)N1CCC[C@H]1C(=O)N[C@@H](Cc1ccccc1)C(=O)O | Ki [1]: > 100 µM; half-life at 5 µM [2]: 0.0767 h; inhibition [3]: Dose-dependent effect; IC50 [4]: 0.0014 µM; Activity [5]: Active; Imax [6]: 85%
1.4 µM |  | CCN(CC)c1ccc2c(-c3ccc(S(=O)(=O)NCCCCCCCCCCCCNC(=O)NCCCC[C@H](NC(=O)Cc4csc(=N)n4C)C(=O)N[C@@H](Cc4cn(Cc5ccccc5)c[n+]4C)C(=O)NC4CC[N+](C)(C)CC4)cc3S(=O)(=O)O)c3ccc(=[N+](CC)CC)cc-3oc2c1 | 
> 100 µM |  | CC(=O)NCCCC[C@H](NC(=O)Cc1csc(=N)n1C)C(=O)N[C@@H](Cc1cn(Cc2ccccc2)c[n+]1C)C(=O)NC1CCN(C)CC1 | 
0.43 µM |  | CCN(CC)c1ccc2c(-c3ccc(S(=O)(=O)NCCCCCCCCCCCCNC(=O)NCCCC[C@H](NC(=O)Cc4csc(=N)n4C)C(=O)N[C@@H](Cc4cn(Cc5ccccc5)c[n+]4C)C(=O)NC4CCN(C)CC4)cc3S(=O)(=O)O)c3ccc(=[N+](CC)CC)cc-3oc2c1 [listing 1 of 2 here] | 
> 100 µM |  | CCN(CC)c1ccc2c(-c3ccc(S(=O)(=O)NCCCCNCCCC[C@H](NC(=O)Cc4csc(=N)n4C)C(=O)N[C@@H](Cc4cn(Cc5ccccc5)c[n+]4C)C(=O)NC4CCN(C)CC4)cc3S(=O)(=O)O)c3ccc(=[N+](CC)CC)cc-3oc2c1 | 
 |  | COC(=O)Cc1csc(=N)n1C | pKa at 2000 µM [8]: 9.77
9 µM |  | CCN(CC)c1ccc2c(-c3ccc(S(=O)(=O)NCCCCCCCCCCCCNC(=O)NCCCC[C@H](NC(=O)Cc4csc(=N)[nH]4)C(=O)N[C@@H](Cc4cn(Cc5ccccc5)cn4)C(=O)NC4CCN(C)CC4)cc3S(=O)(=O)[O-])c3ccc(=[N+](CC)CC)cc-3oc2c1 | 
0.18 µM | Active | CCN(CC)c1ccc2c(-c3ccc(S(=O)(=O)NCCCC[C@H](NC(=O)Cc4csc(=N)n4C)C(=O)N[C@@H](Cc4cn(Cc5ccccc5)c[n+]4C)C(=O)NCC4CCN(C)CC4)cc3S(=O)(=O)[O-])c3ccc(=[N+](CC)CC)cc-3oc2c1 | 
1.2 µM |  | CCN(CC)c1ccc2c(-c3ccc(S(=O)(=O)NCCCC[C@H](NC(C)=O)C(=O)N[C@@H](Cc4cn(Cc5ccccc5)c[n+]4C)C(=O)NC4CCN(C)CC4)cc3S(=O)(=O)O)c3ccc(=[N+](CC)CC)cc-3oc2c1 | 
0.4 µM | Active | CCN(CC)c1ccc2c(-c3ccc(S(=O)(=O)NCCCC[C@H](NC(=O)Cc4csc(=N)n4C)C(=O)N[C@@H](Cc4cn(Cc5ccccc5)c[n+]4C)C(=O)NC4CCN(C)CC4)cc3S(=O)(=O)[O-])c3ccc(=[N+](CC)CC)cc-3oc2c1.O=C(O)C(F)(F)F.O=C(O)C(F)(F)F.O=C([O-])C(F)(F)F | Ki [1]: > 1000 µM; half-life at 5 µM [2]: > 10 h; inhibition [3]: Dose-dependent effect; IC50 [4]: 3 µM; Imax [6]: 77%
0.96 µM | Active | CCN(CC)c1ccc2c(-c3ccc(S(=O)(=O)NCCCC[C@H](NC(=O)Cc4csc(=N)n4C)C(=O)N[C@@H](Cc4cn(Cc5ccccc5)cn4)C(=O)NC4CCN(C)CC4)cc3S(=O)(=O)[O-])c3ccc(=[N+](CC)CC)cc-3oc2c1 | 
0.69 µM |  | CCN(CC)c1ccc2c(-c3ccc(S(=O)(=O)NCCCCCCCCCCCCNC(=O)NCCCC[C@H](NC(=O)Cc4csc(=N)n4C)C(=O)N[C@@H](Cc4cn(Cc5ccccc5)c[n+]4C)C(=O)NC4CCN(C)CC4)cc3S(=O)(=O)O)c3ccc(=[N+](CC)CC)cc-3oc2c1 [listing 2 of 2 here] | Ki [1]: 2.23 µM; half-life at 5 µM [2]: > 10 h; IC50 [4]: 4.3 µM
1.5 µM |  | CCN(CC)c1ccc2c(-c3ccc(S(=O)(=O)NCCCCCCCCCCCCNC(=O)NCCCC[C@H](NC(=O)Cc4csc(=N)n4C)C(=O)N[C@@H](Cc4cn(Cc5ccccc5)cn4)C(=O)NC4CCN(C)CC4)cc3S(=O)(=O)[O-])c3ccc(=[N+](CC)CC)cc-3oc2c1 | 
0.98 µM | inactive | CCN(CC)c1ccc2c(-c3ccc(S(=O)(=O)NCCCC[C@H](NC(=O)Cc4csc(=N)n4C)C(=O)N[C@@H](Cc4cn(Cc5ccccc5)c[n+]4C)C(=O)NC4CCOCC4)cc3S(=O)(=O)[O-])c3ccc(=[N+](CC)CC)cc-3oc2c1 | 
0.85 µM | inactive | CCN(CC)c1ccc2c(-c3ccc(S(=O)(=O)NCCCC[C@H](NC(=O)Cc4csc(=N)[nH]4)C(=O)N[C@@H](Cc4cn(Cc5ccccc5)c[n+]4C)C(=O)NC4CCN(C)CC4)cc3S(=O)(=O)[O-])c3ccc(=[N+](CC)CC)cc-3oc2c1 | 
 |  | COC(=O)Cc1csc(N)n1 | pKa at 2000 µM [8]: 4.83
0.97 µM |  | CCN(CC)c1ccc2c(-c3ccc(S(=O)(=O)NCCCC[C@H](NC(=O)Cc4csc(=N)n4C)C(=O)N[C@@H](Cc4cn(Cc5ccccc5)c[n+]4C)C(=O)N[C@@H](C)C(N)=O)cc3S(=O)(=O)O)c3ccc(=[N+](CC)CC)cc-3oc2c1 | 
3 µM |  | CCN(CC)c1ccc2c(-c3ccc(S(=O)(=O)NCCCCCCCCCCCCNC(=O)NCCCC[C@H](NC(=O)Cc4csc(=N)n4C)C(=O)N[C@@H](Cc4cn(Cc5ccccc5)cn4)C(=O)NC4CC[N+](C)(C)CC4)cc3S(=O)(=O)O)c3ccc(=[N+](CC)CC)cc-3oc2c1 | 
0.45 µM | inactive | CCN(CC)c1ccc2c(-c3ccc(S(=O)(=O)NCCCC[C@H](NC(=O)Cc4csc(=N)n4C)C(=O)N[C@@H](C)C(=O)NC4CCN(C)CC4)cc3S(=O)(=O)[O-])c3ccc(=[N+](CC)CC)cc-3oc2c1 | 
0.31 µM | Active | CCN(CC)c1ccc2c(-c3ccc(S(=O)(=O)NCCCCCCNC(=O)NCCCC[C@H](NC(=O)Cc4csc(=N)n4C)C(=O)N[C@@H](Cc4cn(Cc5ccccc5)c[n+]4C)C(=O)NC4CCN(C)CC4)cc3S(=O)(=O)[O-])c3ccc(=[N+](CC)CC)cc-3oc2c1 | 
0.089 µM | inactive | CCN(CC)c1ccc(C(=C2C=CC(=[N+](CC)CC)C=C2)c2ccc(S(=O)(=O)NCCCC[C@H](NC(=O)Cc3csc(=N)n3C)C(=O)N[C@@H](Cc3cn(Cc4ccccc4)c[n+]3C)C(=O)NC3CCN(C)CC3)cc2S(=O)(=O)[O-])cc1.O=C(O)C(F)(F)F.O=C(O)C(F)(F)F.O=C([O-])C(F)(F)F | Ki [1]: 98 µM; half-life at 5 µM [2]: > 10 h; inhibition [3]: Dose-dependent effect; IC50 [4]: 1.7 µM; Imax [6]: 69%
 | Active | CCN(CC)c1ccc2c(-c3ccc(S(=O)(=O)NCCCCCCCCCCCCNC(=O)NCCCC[C@H](NC(=O)Cc4csc(=N)n4C)C(=O)N[C@@H](Cc4cn(Cc5ccccc5)c[n+]4C)C(=O)NC4CCN(C)CC4)cc3S(=O)(=O)[O-])c3ccc(=[N+](CC)CC)cc-3oc2c1 | inhibition [3]: Dose-dependent effect; Imax [6]: 100%
0.27 µM | Active | CCN(CC)c1ccc2c(-c3ccc(S(=O)(=O)NCCCC[C@H](NC(=O)Cc4csc(=N)n4C)C(=O)N[C@@H](Cc4cn(Cc5ccccc5)c[n+]4C)C(=O)NC4CCN(Cc5ccccc5)CC4)cc3S(=O)(=O)[O-])c3ccc(=[N+](CC)CC)cc-3oc2c1 | 
